Experiment [1] addresses T1, N-formyl peptide receptor 2 (Homo sapiens, UniProt P25090).
T1 sequence (P25090 whole entry): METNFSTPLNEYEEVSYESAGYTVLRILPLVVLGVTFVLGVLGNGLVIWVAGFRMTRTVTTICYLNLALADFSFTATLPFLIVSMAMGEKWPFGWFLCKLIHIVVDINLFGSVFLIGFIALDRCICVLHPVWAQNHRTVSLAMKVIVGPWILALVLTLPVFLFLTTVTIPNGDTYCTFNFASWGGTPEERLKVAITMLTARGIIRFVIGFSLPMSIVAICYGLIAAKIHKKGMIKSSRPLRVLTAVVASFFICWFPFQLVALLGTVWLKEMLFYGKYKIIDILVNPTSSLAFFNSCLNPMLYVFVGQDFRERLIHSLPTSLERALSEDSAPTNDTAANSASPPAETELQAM
Briefly: cAMP Assay. How it is done:
(§1) FPR2 and FPR1 Cyclic Adenosine Monophosphate (cAMP) Assays were used to measure the activity of the compounds in this patent. FPR2 and FPR1 Cyclic Adenosine Monophosphate (cAMP) Assays. A mixture of forskolin (5 μM final for FPR2 or 10 μM final for FPR1) and IBMX (200 μM final) were added to 384-well Proxiplates (Perkin-Elmer) pre-dotted with test compounds in DMSO (1% final) at final concentrations in the range of 0.020 nM to 100 μM. Chinese Hamster Ovary cells (CHO) overexpressing human FPR1 or human FPR2 receptors were cultured in F-12 (Ham's) medium supplemented with 10% qualified FBS, 250 μg/ml zeocin and 300 μg/ml hygromycin (Life Technologies). Reactions were initiated by adding 2,000 human FPR2 cells per well or 4,000 human FPR1 cells per well in Dulbecco's PBS (with calcium and magnesium) (Life Technologies) supplemented with 0.1% BSA (Perkin-Elmer). The reaction mixtures were incubated for 30 min at room temperature. The level of intracellular cAMP was determined using the HTRF HiRange cAMP assay reagent kit (Cisbio) according to manufacturer's instruction. Solutions of cryptate conjugated anti-cAMP and d2 flurorophore-labelled cAMP were made in a supplied lysis buffer separately. Upon completion of the reaction, the cells were lysed with equal volume of the d2-cAMP solution and anti-cAMP solution.

The next experiment deals with T2, fMet-Leu-Phe receptor (Homo sapiens, UniProt P21462).
T2 sequence (P21462 whole entry): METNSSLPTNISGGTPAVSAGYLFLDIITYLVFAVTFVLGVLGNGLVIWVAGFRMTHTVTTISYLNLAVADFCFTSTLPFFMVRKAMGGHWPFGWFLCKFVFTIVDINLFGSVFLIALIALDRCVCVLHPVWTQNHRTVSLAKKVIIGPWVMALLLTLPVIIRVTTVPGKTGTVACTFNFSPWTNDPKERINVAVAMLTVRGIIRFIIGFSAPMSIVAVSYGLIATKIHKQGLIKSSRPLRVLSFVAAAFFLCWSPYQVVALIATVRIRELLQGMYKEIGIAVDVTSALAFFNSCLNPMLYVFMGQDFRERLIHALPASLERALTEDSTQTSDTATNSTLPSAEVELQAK
The experiment is described as follows: cAMP Assay. How it is done:
as §1

EC50 data for 2 compounds are collected here from BindingDB's records for patent US20230303513 (Bristol-Myers Squibb, 2023).

The structures appear in SMILES notation.

In general, EC50 refers to the concentration that produces a half-maximal response.

Regarding `COCCn1cccc(N2C[C@@H](c3ccc(Cl)cc3)[C@H](NC(=O)NC3CCc4cc(OC)ccc4C3)C2=O)c1=O` (some centres undefined) [US20230303513, Example 55], the EC50 in experiment [1] is 6.2 nM; on fMet-Leu-Phe receptor, over 10000 nM.
As to `COCC(CO)n1cccc(N2C(=O)[C@@H](NC(=O)N[C@H]3CC[C@H](C(F)F)CC3)[C@H](c3c(F)cc(OC)cc3F)[C@@H]2C)c1=O` (some centres undefined) [US20230303513, Example 63], the half-maximal effective concentration (EC50) in experiment [1] amounted to 41 nM; on fMet-Leu-Phe receptor, 3600 nM.
